The record followed here is the Kinase Knowledgebase extract (Sharma et al. 2016).

Each structure is given as a SMILES string. “And” between values parts separate entries of the source, which are not always exact repeats. Equal entries are not always repeated. Bounds are passed on as bounds.

In test [1] the target is EGFR (UniProt P00533). The conditions noted are these: various cell lines.
Test [2] has as its target EGFR (UniProt P00533).

Sequence of EGFR (P00533 whole entry, looked up): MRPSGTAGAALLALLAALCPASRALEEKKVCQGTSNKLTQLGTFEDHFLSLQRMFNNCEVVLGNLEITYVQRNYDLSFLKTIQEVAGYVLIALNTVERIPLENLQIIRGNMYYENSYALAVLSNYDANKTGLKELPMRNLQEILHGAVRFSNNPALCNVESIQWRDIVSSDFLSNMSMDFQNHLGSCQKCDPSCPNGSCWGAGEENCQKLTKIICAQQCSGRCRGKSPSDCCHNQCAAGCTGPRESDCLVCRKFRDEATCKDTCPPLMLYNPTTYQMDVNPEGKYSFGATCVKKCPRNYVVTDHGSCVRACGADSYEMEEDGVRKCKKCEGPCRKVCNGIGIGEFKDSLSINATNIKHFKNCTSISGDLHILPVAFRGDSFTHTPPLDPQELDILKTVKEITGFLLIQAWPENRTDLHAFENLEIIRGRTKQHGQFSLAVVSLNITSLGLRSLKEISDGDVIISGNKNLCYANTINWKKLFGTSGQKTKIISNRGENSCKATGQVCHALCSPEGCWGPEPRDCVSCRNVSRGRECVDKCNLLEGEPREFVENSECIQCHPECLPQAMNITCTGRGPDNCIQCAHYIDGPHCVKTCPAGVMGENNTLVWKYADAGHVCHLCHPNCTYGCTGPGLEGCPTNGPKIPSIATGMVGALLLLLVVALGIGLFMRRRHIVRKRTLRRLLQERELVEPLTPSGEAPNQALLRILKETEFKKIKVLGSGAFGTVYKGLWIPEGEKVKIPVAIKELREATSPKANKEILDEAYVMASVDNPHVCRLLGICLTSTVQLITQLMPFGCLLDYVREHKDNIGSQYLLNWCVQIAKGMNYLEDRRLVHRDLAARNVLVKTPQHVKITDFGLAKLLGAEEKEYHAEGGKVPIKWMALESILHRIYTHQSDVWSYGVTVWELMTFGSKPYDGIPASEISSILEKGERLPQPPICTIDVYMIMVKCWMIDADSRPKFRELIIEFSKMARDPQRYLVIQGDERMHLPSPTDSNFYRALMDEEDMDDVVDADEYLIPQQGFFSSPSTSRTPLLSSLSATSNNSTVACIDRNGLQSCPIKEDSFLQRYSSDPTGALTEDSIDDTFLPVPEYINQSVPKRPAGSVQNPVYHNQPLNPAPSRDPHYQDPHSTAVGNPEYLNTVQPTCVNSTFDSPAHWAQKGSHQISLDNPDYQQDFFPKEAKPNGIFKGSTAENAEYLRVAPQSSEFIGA

Take `CNc1cc2c(Nc3cccc(Br)c3)ncnc2cn1`: the IC50 at EGFR [1] came to 0.013 µM.
Regarding `COc1cccc(CNc2n[nH]c3ncnc(Nc4cccc(Cl)c4)c23)c1`, the IC50 against EGFR [2] stood at 0.008 µM.
`COc1cc2ncnc(Oc3cccc(Br)c3)c2cc1OC`: the IC50 at EGFR [1] worked out at 0.07 µM.
Compound `CNC(=O)c1c([Se][Se]c2c(C(=O)NC)c3ccccc3n2C)n(C)c2ccccc12` gave an IC50 on EGFR [2] of 6.1 µM.
`COc1cc2ncnc(N[C@@H](C)c3cccc(Br)c3)c2cc1OC` had an IC50 against EGFR [2] of 3.76 µM.
Compound `Cc1cccc(N(C)c2ncnc3[nH]ncc23)c1` registered an IC50 on EGFR [2] greater than 50 µM.
With `Brc1cccc(Nc2ncnc3cc4[nH]ncc4cc23)c1`, the IC50 on EGFR [2] is 0.00044 µM.
The same measure, in the same setting: then `COc1cc2c(NC3CC3c3ccccc3)ncnc2cc1OCCCN(C)C` (centres undefined), with 0.003 µM.
For `Brc1cccc(Nc2ncnc3cnc(NCCN4CCOCC4)cc23)c1`, the IC50 on EGFR [1] was found to be 0.0079 µM.
On EGFR [1], `CNc1ncc2ncnc(Nc3cccc(Br)c3)c2n1` showed an IC50 of 0.03 µM.
`COc1cc2ncnc(N(C)c3cccc(C)c3)c2cc1OC` returned an IC50 on EGFR [2] of 12 µM.
As to `COc1cc2ncnc(N[C@H](C)c3cccc(Br)c3)c2cc1OC`, the IC50 on EGFR [2] amounted to 0.0016 µM.
At EGFR [1], `C/C(O)=C(/C#N)C(=O)Nc1ccc(C(F)(F)F)cc1` showed an IC50 of 35 µM.
For the compound `Cc1cccc2c(CCC(=O)O)c(SSc3[nH]c4c(C)cccc4c3CCC(=O)O)[nH]c12`, on EGFR [2], the IC50 is 1.5 µM.
On the same count and under the same terms, then `O=CN/C=C/c1cc(O)ccc1O`, with 0.367 µM.
On the same count and under the same terms, then `Brc1cccc(Nc2ncnc3cc4cn[nH]c4cc23)c1`, with 0.00034 µM; and `C=CC(=O)Nc1ccc2sc3c(Nc4cccc(Br)c4)ncnc3c2c1`, with 0.023 µM.
As to `CCN(CC)CC(O)CNc1cc2c(Nc3cccc(Br)c3)ncnc2cn1` (centres undefined), the IC50 against EGFR [1] is 0.028 µM.
As for `Brc1cccc(Nc2ncnc3cnc(NCCc4c[nH]cn4)nc23)c1`, the IC50 against EGFR [1] amounted to 0.0051 µM.
In the case of `CN(C)Cc1c[nH]c2cc3ncnc(Nc4cccc(Br)c4)c3cc12`, the IC50 on EGFR [1] amounted to 0.0097 µM.
The compound `Nc1ccc(-c2n[nH]c3ncnc(Nc4cccc(Cl)c4)c23)cc1` had an IC50 at EGFR [2] of 0.002 µM.
The compound `C=CC(=O)Nc1ccc2c(c1)sc1c(Nc3cccc(Br)c3)ncnc12` came in with an IC50 at EGFR [2] of 0.021 µM.
Still for that read-out and setting: then `CNc1cc2ncnc(Nc3cccc(Br)c3)c2cn1`, with 9.1e-05 µM.
`Brc1cccc(Nc2ncnc3cc(NCCCN4CCOCC4)ncc23)c1`: the IC50 against EGFR [1] came to 0.038 µM; on EGFR [2] it was 0.0074 µM.
`COc1cc2cc(-c3ccccc3)c(Cl)nc2cc1OC` displayed an IC50 against EGFR [1] greater than 0.03 µM.
Turning to `Brc1cccc(Nc2ncnc3cc4[nH]cc(CN5CCOCC5)c4cc23)c1`, the IC50 at EGFR [1] came out at 0.0096 µM.
As to `CN(C)CCCCNc1cc2ncnc(Nc3cccc(Br)c3)c2cn1`, the figures for the IC50 at EGFR [1] and against EGFR [2] were 0.0081 µM and 0.0019 µM, respectively.
In turn, `COc1cc2ncnc(NCc3cccc(Br)c3)c2cc1OC` had an IC50 against EGFR [2] of 0.01 µM.
Compound `COc1cc2ncnc(Nc3cncc4ccccc34)c2cc1OC` gave an IC50 on EGFR [2] of 0.006 µM.
`C=CC(=O)Nc1cccc2c1sc1c(Nc3cccc(Br)c3)ncnc12`: the IC50 against EGFR [1] turned out to be 0.024 µM; at EGFR [2], 0.0014 µM.
As to `CN(C)CCNc1cc2c(Nc3cccc(Br)c3)ncnc2cn1`, on EGFR [1], the IC50 came to 0.048 µM.
As to `CC(=O)Oc1cccc2c1c(C(=O)Nc1ccccc1)c(SSc1c(C(=O)Nc3ccccc3)c3c(OC(C)=O)cccc3n1C)n2C`, at EGFR [2], the IC50 is 10 µM.
With `Brc1cccc(Nc2ncnc3ccccc23)c1`, the IC50 on EGFR [2] is 0.02 µM and 0.023 µM.
Same read-out and setting: then `COC(=O)Cc1c(SSc2[nH]c3ccccc3c2CC(=O)OC)[nH]c2ccccc12`, with 18 µM.
Compound `Clc1cccc(Nc2ncnc3[nH]nc(Nc4cccc(Cl)c4)c23)c1` returned an IC50 against EGFR [2] of 0.033 µM.
On the same count and under the same terms, then `COc1cc2ncnc(NC3CC3c3ccccc3)c2cc1OC` (centres undefined), with 0.01 µM.
The compound `Brc1cccc(Nc2ncnc3cc4c(ccn4CCN4CCOCC4)cc23)c1` gave an IC50 against EGFR [1] of 0.016 µM.
`Cn1c(SSc2c(C(=O)Nc3ccccc3)c3ccccc3n2C)c(C(=O)Nc2ccccc2)c2ccccc21` had an IC50 against EGFR [2] of 20 µM.
In the case of `COc1cc2nccc(Oc3cccc(Br)c3)c2cc1OC`, the IC50 against EGFR [1] worked out at 2.5 µM.
For the compound `O=C1NC(=O)c2cc(NC3CCCCC3)c(NC3CCCCC3)cc21`, the IC50 at EGFR [2] is greater than 1000 µM.
Compound `Clc1cccc(Nc2ncnc3[nH]c4ccccc4c23)c1` gave an IC50 against EGFR [2] of 0.006 µM.
As to `Clc1cccc(Nc2ncnc3ccccc23)c1`, the IC50 at EGFR [2] is 0.04 µM and 0.027 µM.
Regarding `Brc1cccc(Nc2ncnc3cc4[nH]ccc4cc23)c1`, the results for the IC50 on EGFR [1] and against EGFR [2] were 0.02 µM and 0.00044 µM, respectively.
In turn, `Nc1nc(N)c2c(Nc3cccc(Cl)c3)n[nH]c2n1` gave an IC50 against EGFR [2] of 0.22 µM.
The same measure, in the same setting: then `COc1cc2ncnc(Nc3ccc(F)c(Br)c3)c2cc1OCCCN1CCOCC1`, with 0.02 µM.

Usually IC50 stands for the concentration needed to halve the response being measured.
